Laboratory results: ChEMBL document CHEMBL1131074, “Conformational analysis of ketolide, conformations of RU 004 in solution and bound to bacterial ribosomes” (J Med Chem, 1998)

Key:
Type in all cases: functional, organism-based
Escherichia coli [1] = assay: Pka1 value was evaluated in Escherichia coli MRE600 strain 70S ribosome (Observation 2)
Escherichia coli [2] = assay: Pka2 value was evaluated in Escherichia coli MRE600 strain 70S ribosome (Observation 2)
Escherichia coli [3] = assay: Pka2 value was evaluated in Escherichia coli MRE600 strain 70S ribosome (Observation 1)
Escherichia coli [4] = assay: Pka1 value was evaluated in Escherichia coli MRE600 strain 70S ribosome (Observation 1)

Compound CC[C@H]1OC(=O)C(C)C(=O)[C@H](C)[C@@H](O[C@@H]2O[C@H](C)C[C@H](N(C)C)[C@H]2O)[C@@](C)(OC)C[C@@H](C)C(=O)[C@H](C)[C@H]2N(NCCCc3ccnc4ccccc34)C(=O)O[C@]12C (some centres undefined) has a pKa1 (Escherichia coli [1]) of 3, a pKa2 (Escherichia coli [2]) of 6 and a pKa2 (Escherichia coli [3]) of 8. It also gave a pKa1 (Escherichia coli [4]) of 5.
